Results reported in patent US20170001970A1, “Substituted benzohydrazide analogs as histone demethylase inhibitors” (University of Utah Research Foundation, priority 2015, published 2017).

How the values were obtained:
LSD1 = target: T1, LSD1 (Homo sapiens, UniProt O60341); assay: LSD1 histone demethylase assay (LSD1 Inhibitor Screening Assay Kit, Cayman); assay type: biochemical
T1 construct: purchased Cayman Chemical Company 700120
Protocol: Recombinant (expressed in baculovirus infected BTI insect cells) monoamine oxidase A and monoamine oxidase B (Catalog No. M7316 and M7441, respectively) were purchased from Sigma-Aldrich Co. LLC. (St. Louis, Mo.). MAO-Glo™ Assay Kit was purchased from Promega Corporation (Madison, Wis.). ATPlite™ Luminescence Assay System (e.g. Catalog No. V1401) was purchased from PerkinElmer Inc. (Waltham, Mass.).
Briefly, test compounds were diluted to 20× the desired test concentration in 100% DMSO and 2.5 μL of the diluted test sample was added to a black 384-well plate. The LSD1 enzyme stock was diluted 17-fold with assay buffer, and 40 μL of the diluted LSD1 enzyme was added to the appropriate wells. Substrate, consisting of horseradish peroxidase, dimethyl K4 peptide corresponding to the first 21 amino acids of the N-terminal tail of histone H3, and 10-acetyl-3,7-dihydroxyphenoxazine was then added to wells. Resorufin was analyzed on an Envision plate reader with an excitation wavelength of 530 nm and an emission wavelength of 595 nm.
IC50 values are determined using GraphPad Prism 5 software. The data were entered as an X-Y plot into the software as percent inhibition for each concentration of the drug. The concentration values of the drug were log transformed and the nonlinear regression was carried out using the “sigmoidal dose-response (variable slope)” option within the GraphPad software to model the data and calculate IC50 values.

Ewing's sarcoma cells = assay: Cell viability with drug screening (CellTiter Glo, 72 hour); assay type: cell-based; conditions: SK-N-MC, SKESI, A673 cells
Protocol: A hemocytometer count is performed to determine cell concentration. In a 96-well tissue culture plate, 2000 cells per well are plated for each drug concentration. Generally, 10 wells are done in duplicate. Then, the plates are placed in incubator overnight to allow cells to adhere to the plate (If suspension cells, proceed to the next step). Then, the desired drug concentrations are added to each well (ex. Serial dilutions 10 uM, 3 uM, 1 uM, […] . . . etc.). Generally, each drug concentration is made at 10× in media and then 10 uL of drug is diluted in 90 uL of cells to get the final desired concentration. Then, the cells are incubated at 37° C. for 72 hours; after 72 hours, 100 uL of Promega Cell Titer Glo is added, and allowed incubation at room temperature for 10 minutes. Finally, the plates are read using the Envision software. Data analysis is performed using Graph Pad Prism 6.
FIGS. 5-7 depict graphs showing 72 hour time course cell viability of Ewing's sarcoma using CellTiter Glo (Promega). The tested compound was 10054Z and the control compound was 2606 which has the following structure: […]

LSD2 = target: T2, LSD2 (Homo sapiens, UniProt Q8NB78); assay: LSD2 enzymatic activity (FIG. 4); assay type: biochemical
T2 sequence (Q8NB78 1-822): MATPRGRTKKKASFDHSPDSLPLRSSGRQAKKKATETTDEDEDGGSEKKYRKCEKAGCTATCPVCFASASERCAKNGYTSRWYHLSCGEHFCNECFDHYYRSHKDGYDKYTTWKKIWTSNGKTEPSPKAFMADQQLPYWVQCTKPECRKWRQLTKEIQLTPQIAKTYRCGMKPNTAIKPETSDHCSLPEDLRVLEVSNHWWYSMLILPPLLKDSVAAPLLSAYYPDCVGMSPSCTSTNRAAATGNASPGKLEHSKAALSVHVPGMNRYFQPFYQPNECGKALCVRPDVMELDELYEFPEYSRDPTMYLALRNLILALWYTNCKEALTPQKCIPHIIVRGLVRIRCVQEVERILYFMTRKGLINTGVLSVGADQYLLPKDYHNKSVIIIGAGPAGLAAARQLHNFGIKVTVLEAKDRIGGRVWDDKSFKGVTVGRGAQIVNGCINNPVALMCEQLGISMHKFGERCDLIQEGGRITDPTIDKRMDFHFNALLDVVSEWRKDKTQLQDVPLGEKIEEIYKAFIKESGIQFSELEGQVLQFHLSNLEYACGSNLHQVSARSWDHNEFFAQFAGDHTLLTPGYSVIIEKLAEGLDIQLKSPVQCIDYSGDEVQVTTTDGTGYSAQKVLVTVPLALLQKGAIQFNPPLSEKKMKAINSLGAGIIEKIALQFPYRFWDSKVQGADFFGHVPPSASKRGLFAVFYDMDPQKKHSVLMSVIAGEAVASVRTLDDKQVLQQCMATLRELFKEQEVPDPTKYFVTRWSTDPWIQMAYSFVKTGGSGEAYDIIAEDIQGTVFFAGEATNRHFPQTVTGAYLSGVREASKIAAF
Description: Inhibition of LSD activity can be determined by a variety of both in vitro and in vivo methods known to one skilled in the art. For example, enzymatic activity can be determined in in vitro enzyme assay systems. In various aspects, the enzymatic activity of either LSD1 or LSD2 can be determined in a spectrophometric assay. Briefly, the assay is based on the multistep enzymatic reaction in which LSD1 or LSD2 first produces H2O2 during the demethylation of lysine 4 on a peptide corresponding to the first 21 amino acids of the N-terminal tail of histone H3. In the presence of horseradish peroxidase, the H2O2 produced reacts with ADHP to produce the highly fluorescent compound resorufin that can be analyzed with an excitation wavelength of 530-540 nm and an emission wavelength of 585-595 nm. The assay requires a source of LSD or LSD2 enzyme, either purified from natural sources (e.g. a tissue or cultured cells), isolated as a recombinantly expressed protein, or as a unpurified protein in whole cell extracts.

IC50 (LSD1) [µM]	inhibition of LSD2 activity (in words, FIG. 4) (LSD2)	Structure (SMILES)	viability of Ewing's sarcoma cells (in words, FIGS. 5-7) (Ewing's sarcoma cells)
0.426	–	CCN1CCN(S(=O)(=O)c2cccc(C(=O)NN=C3CCc4c(Cl)cc(C)c(O)c43)c2)CC1 (stereo in doubt) [SP-10047_Z, (E)-N′-(4-chloro-7-hydroxy-6-methyl-2,3-dihydro-1H-Inden-1-ylidene)-3-((4-ethylpiperazin-1-yl)sulfonyl)benzohydrazide]	–
0.029	–	CC1CC(=NNC(=O)c2cccc(S(=O)(=O)N3CCN(C)CC3)c2)c2c(O)ccc(Cl)c21 (stereo in doubt) [SP-10054_Z, (E)-N′-(4-chloro-7-hydroxy-3-methyl-2,3-dihydro-1H-inden-1-ylidene)-3-((4-methylpiperazin-1-yl)sulfonyl)benzohydrazide]	significantly decrease the viability
0.418	–	CC1CC(=NNC(=O)c2cccc(S(=O)(=O)N3CCOCC3)c2)c2c(O)ccc(Cl)c21 (stereo in doubt) [SP-10055_Z, (E)-N′-(4-chloro-7-hydroxy-3-methyl-2,3-dihydro-1H-inden-1-ylidene)-3-(morpholinosulfonyl)benzohydrazide]	–
> 10	–	Cc1cc(Cl)c2c(c1O)/C(=N/NC(=O)c1cccc(S(=O)(=O)N3CCC(C)CC3)c1)CC2 [SP-10046_E, (E)-N′-(4-chloro-7-hydroxy-6-methyl-2,3-dihydro-1H-inden-1-ylidene)-3-((4-methylpiperidin-1-yl)sulfonyl)benzohydrazide]	–
0.078	–	CC1C/C(=N\NC(=O)c2cccc(S(=O)(=O)N3CCOCC3)c2)c2c(O)ccc(Cl)c21 (stereo not drawn) [SP-10055_E, (E)-N′-(4-chloro-7-hydroxy-3-methyl-2,3-dihydro-1H-inden-1-ylidene)-3-(morpholinosulfonyl)benzohydrazide]	–
30.4	–	Cc1ccc(Cl)c2c1/C(=N/NC(=O)c1cccc(S(=O)(=O)N3CCN(C)CC3)c1)CC2 [SP-10061_E, (E)-N′-(4-chloro-7-methyl-2,3-dihydro-1H-inden-1-ylidene)-3-((4-methylpiperazin-1-yl)sulfonyl)benzohydrazide]	–

The next lines start with the compound.

Structure (SMILES)	IC50 (LSD1) [µM]	inhibition of LSD2 activity (in words, FIG. 4) (LSD2)	viability of Ewing's sarcoma cells (in words, FIGS. 5-7) (Ewing's sarcoma cells)
CN1CCN(S(=O)(=O)c2cccc(C(=O)N/N=C3\CCc4c(Cl)ccc(O)c43)c2)CC1 [SP-10041_E, (E)-N′-(4-chloro-7-hydroxy-2,3-dihydro-1H-inden-1-ylidene)-3-((4-methylpiperazin-1-yl)sulfonyl)benzohydrazide]	–	significantly inhibit	–
CN1CCN(S(=O)(=O)c2cccc(C(=O)N/N=C3/CCc4c(Cl)ccc(O)c43)c2)CC1 [SP-10041_Z]	–	significantly inhibit	–
CN1CCN(S(=O)(=O)c2cccc(C(=O)N/N=C3\CCc4cc(O)cc(Cl)c43)c2)CC1 [SP-10043-E, (E)-N′-(7-chloro-5-hydroxy-2,3-dihydro-1H-inden-1-ylidene)-3-((4-methylpiperazin-1-yl)sulfonyl)benzohydrazide]	> 10	–	–
CN1CCN(S(=O)(=O)c2cccc(C(=O)N/N=C3/CCc4cc(O)cc(Cl)c43)c2)CC1 [SP-10043_Z]	> 10	–	–
CN1CCN(S(=O)(=O)c2cccc(C(=O)N/N=C3/CCc4c(F)ccc(O)c43)c2)CC1 [SP-10044_Z]	0.403	–	–
